Source: patent publication US8742173B2, “Phenolic hydrazone macrophage migration inhibitory factor inhibitors” (The Feinstein Institute for Medical Research, priority 2006, dated 2014)
Where two headings read alike, the source gives them in different places. Values belong to the compound of their own block, whether it stands above or below them.

How the values were obtained:
LPS-treated macrophages = conditions: cited from earlier work
Balb/C mice [1] = conditions: Al-Abed et al., 2005; cited from earlier work
MIF [2] = target: T1, MIF (Homo sapiens, UniProt P14174); experiment: Spectrophotometric assay of MIF tautomerase activity on L-dopachrome methyl ester; assay type: biochemical
T1 sequence (P14174 2-115 limits assumed): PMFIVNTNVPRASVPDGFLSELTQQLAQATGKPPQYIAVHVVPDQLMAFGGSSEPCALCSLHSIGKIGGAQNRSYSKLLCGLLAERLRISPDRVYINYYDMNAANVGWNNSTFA
Method: The inhibitors 3-15 were dissolved in DMSO at various concentrations (0.1-100 μM) and 1 μL was added to the cuvette with the MIF prior to the addition of the dopachrome.
The inhibitors were dissolved in DMSO at various concentrations (0.1-100 mM) and added to the cuvette with the MIF prior to the addition of the dopachrome.

Balb/C mice [3] = experiment: Cecal ligation and puncture (CLP) sepsis model, survival; assay type: in vivo; conditions: 4 mg/kg intraperitoneal, initiated 24 h after CLP, continued for 3 days; control 28%
Method: FIG. 4 is a graph of experimental results showing that the hydrazone compound 7 is protective after 24 h late treatment in a CLP model. Mice were injected intraperitoneally with compound 7 (“hydrazone”) (4 mg/kg) (n=13, p<0.01) or vehicle 24 h after CLP (n=13). A single injection was composed of 100 μg of Compound 7 (equivalent to 4 mg/kg) in 200 μL of 20% DMSO: 80% saline solution. Additional administrations of compound 7 (bi-daily) were given on days 2 and 3.
All animal experiments were approved by the Institutional Animal Care and Use Committee of the North Shore-Long Island Jewish Research Institute. Male Balb/C mice, ˜8 weeks old, were subjected to cecal ligation and puncture. Details of the CLP procedure has been carried out as follows: In anesthetized male Balb/C mice (ketamine 100 mg/kg and xylazine 8 mg/kg administered intramuscularly) the cecum was ligated and given a single puncture. Abdominal access was gained via a midline incision. The cecum was isolated and ligated with a 6-0 silk ligature below the ileocecal valve, and the cecum punctured once with a 22 G needle, stool (approximately 1 mm) extruded from the hole, and the cecum placed back into the abdominal cavity. The abdomen was closed with two layers of 6-0 Ethilon sutures. […] Animal survival was monitored for 14 days. […]

Swiss Webster male mice = experiment: Carrageenan air pouch model, leukocyte recruitment; assay type: in vivo; conditions: oral administration; assessed by inhibition of leukocyte infiltration
Method: Air pouches were made according to standard procedures (Garcia-Ramallo et al., 2002) on Swiss Webster male mice (25-30 g) by injecting sterile air s.c. on day 0 (6 ml) and day 3 (3 ml). On day 6, animals were treated with vehicle (350 μl of 20% DMSO) or compound 7 (7 mg/kg) either intraperitoneal (i.p.) or gavage (oral) as indicated. After 15 min, the animals were challenged by injecting 1 ml 1% carrageenan (in PBS) into the air pouch cavity. Five hrs after carrageenan injection the animals were sacrificed, the pouches washed with PBS, exudate collected, and the total number of infiltrating cells quantitated.
In another experiment, air pouches were made as above. On day 6, animals were treated with vehicle (350 μl of 20% DMSO) or compound 7 (7 mg/kg, gavage) at the indicated times prior to sacrificing and cell harvesting. In all cases, 1% carrageenan was injected into the air pouch cavity 5 hrs before sacrificing.

MIF [4] = target: T1, MIF; conditions: previously shown (Dios et al., 2002); read-out: IC50, L-amino acid Schiff bases, MIF tautomerase; cited from earlier work
[5] = Table 1, L-dopachrome methyl ester substrate, read-out: IC50 for inhibition of MIF tautomerase activity
[6] = read-out: IC50, MIF tautomerase activity
[7] = read-out: IC50, MIF tautomerase

Structure (SMILES): COC(=O)CC1CC(c2ccc(O)cc2)=NO1 (stereo not drawn) [Compound 2, ISO-1]
inhibition of LPS-induced TNF release (LPS-treated macrophages; MIF null macrophages): not
inhibition of LPS-induced TNF release (LPS-treated macrophages; wild-type macrophages): dose-dependently inhibits
survival in septic mice (Balb/C mice [1]): significantly improves survival

Structure (SMILES): NN=Cc1ccc(O)cc1 [Compound 3]
IC50 (MIF [2]; [5]): > 500000 nM
IC50 (MIF [2]; [6]): > 500000 nM
melting point: 248 to 250 °C

Structure (SMILES): CNN=Cc1ccc(O)cc1 [Compound 4]
IC50 (MIF [2]; [6]): 43000 nM
melting point: 58 to 60 °C

Structure (SMILES): Oc1ccc(C=NNc2ccccc2)cc1 [Compound 5]
IC50 (MIF [2]; [6]): 2600 nM
melting point: 154 to 156 °C

Structure (SMILES): COc1ccc(NN=Cc2ccc(O)c(F)c2)cc1 [Compound 7]
survival rate (Balb/C mice [3]): 65%
IC50 (MIF [2]; [7]): 130 nM
apparent biological half-life (Swiss Webster male mice): 7-9 hours

Structure (SMILES): COc1ccc(NN=Cc2ccc(O)c(Cl)c2)cc1 [Compound 8]
IC50 (MIF [2]; [7]): 220 nM
melting point: 108 to 110 °C

Structure (SMILES): COc1ccc(NN=Cc2ccc(O)c(Br)c2)cc1 [Compound 9]
IC50 (MIF [2]; [7]): 330 nM
melting point: 135 to 137 °C

Structure (SMILES): CN(N=Cc1ccc(O)cc1)c1ccccc1 [Compound 10]
IC50 (MIF [2]; [6]): 300000 nM
melting point: 93 to 95 °C

Structure (SMILES): CC(C)(C)OC(=O)NN=Cc1ccc(O)c(F)c1 [Compound 18]
IC50 (MIF [2]; Table 2, hydrazone carbamates, L-dopachrome methyl ester substrate, read-out: IC50 for inhibition of MIF tautomerase activity): 2400 nM

Structure (SMILES): N[C@@H](Cc1ccccc1)C(=O)O [L-phenylalanine]
IC50 (MIF [4]): 50 µM

Structure (SMILES): N[C@@H](Cc1ccc(O)cc1)C(=O)O [L-tyrosine]
IC50 (MIF [4]): 10 µM

Now from value to compound:

IC50 (MIF [2]; [5]): 480 nM
Structure (SMILES): COc1ccc(NN=Cc2ccc(O)cc2)cc1 [Compound 6]

melting point: 189 to 190 °C
Structure (SMILES): CCOC(=O)NN=Cc1ccc(O)cc1 [Compound 12]

melting point: 155 to 156 °C
Structure (SMILES): CC(C)(C)OC(=O)NN=Cc1ccc(O)cc1 [Compound 13]

melting point: 159 to 160 °C
Structure (SMILES): O=C(NN=Cc1ccc(O)cc1)OCc1ccccc1 [Compound 14]

melting point: 147 to 148 °C
Structure (SMILES): COc1ccc(COC(=O)NN=Cc2ccc(O)cc2)cc1 [Compound 15]
